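Dose response: 5 concentrations. Exposure: 48 h. Format: 96-well plates. Endpoint: linear interpolation; highest concentration if not reached. Abbreviation: GI50, concentration required for 50% inhibition of growth.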 The source made the active and inactive calls. Rule as the data show it: active = GI50 up to about 1.1 µM and inactive = higher.
Key:
Assay in all cases: inhibition of tumour cell growth, NCI panel, 48 h
[1] = tested on: ACHN
[2] = tested on: CAKI-1
[3] = tested on: COLO 205
[4] = tested on: HL-60
[5] = tested on: Hs-578T
[6] = tested on: LOX IMVI
[7] = tested on: M14
[8] = tested on: MCF7
[9] = tested on: MDA-MB-231
[10] = tested on: MOLT-4
[11] = tested on: NCI-H23
[12] = tested on: NCI-H460
[13] = tested on: OVCAR-3
[14] = tested on: OVCAR-8
[15] = tested on: PC-3
[16] = tested on: SF-539
[17] = tested on: SNB-75
[18] = tested on: SW-620
[19] = tested on: TK-10
[20] = tested on: UO-31

With `CC(C)(C)c1cc(/C=C(\C#N)C2=NCCO2)cc(C(C)(C)C)c1O` the GI50 [1] was 3560 nM (inactive), the GI50 [2] was 3040 nM (inactive) and the GI50 [3] was 1910 nM (inactive). For the same molecule, the GI50 [4] was 2120 nM (inactive), the GI50 [5] was 5090 nM (inactive) and the GI50 [6] was 5960 nM (inactive). The GI50 [7] was 5020 nM (inactive), the GI50 [8] was 3400 nM (inactive) and the GI50 [9] was 3140 nM (inactive). For the same molecule, the GI50 [10] was 3370 nM (inactive), the GI50 [11] was 3440 nM (inactive) and the GI50 [12] was 2510 nM (inactive). The GI50 [13] was 2170 nM (inactive), the GI50 [14] was 4670 nM (inactive) and the GI50 [15] was 2650 nM (inactive). For the same molecule, the GI50 [16] was 3770 nM (inactive), the GI50 [17] was 2420 nM (inactive) and the GI50 [18] was 4060 nM (inactive). For the same molecule, the GI50 [19] was 3480 nM (inactive) and the GI50 [20] was 2730 nM (inactive).
With `COC(=O)c1ccc(O)c2nc3c(C=O)c(O)cc(O)c3nc12` [LOMOFUNGIN] the GI50 [1] was 320 nM (active), the GI50 [2] was 345 nM (active) and the GI50 [3] was 3100 nM (inactive). For the same molecule, the GI50 [4] was 293 nM (active), the GI50 [5] was 1210 nM (inactive) and the GI50 [6] was 269 nM (active). For the same molecule, the GI50 [7] was 592 nM (active), the GI50 [8] was 369 nM (active) and the GI50 [9] was 3170 nM (inactive). For the same molecule, the GI50 [10] was 225 nM (active), the GI50 [11] was 139 nM (active) and the GI50 [12] was 413 nM (active). For the same molecule, the GI50 [13] was 4650 nM (inactive), the GI50 [14] was 43.9 nM (active) and the GI50 [15] was 661 nM (active). The GI50 [16] was 58.5 nM (active), the GI50 [17] was 1780 nM (inactive) and the GI50 [18] was 641 nM (active). The GI50 [19] was 1620 nM (inactive) and the GI50 [20] was 225 nM (active).

Reference: ChEMBL document CHEMBL1201862, “PubChem BioAssay data set” (2004)
